Consider five compounds from ChEMBL document CHEMBL3217720, “Identification of an inhibitor of the ubiquitinproteasome system that induces accumulation of polyubiquitinated proteins in the absence of blocking of proteasome function” (Medchemcomm, 2014).

Assay [1] deals with MelJuSo UbG76V-YFP. Nature of the assay: Inhibition of Ubiquitin-proteasome system in human MelJuSo UbG76V-YFP cells assessed as Hmox-1 accumulation 5 to 10 uM after 18 hrs by immunoblot method. It is filed as cell-based.
For assay [2], the system named is MelJuSo UbG76V-YFP. In words: Inhibition of Ubiquitin-proteasome system in human MelJuSo UbG76V-YFP cells assessed as HSP70B' accumulation 5 to 10 uM after 18 hrs by immunoblot method. It is filed as cell-based.
The test system of assay [3] is MelJuSo UbG76V-YFP. Nature of the assay: Inhibition of Ubiquitin-proteasome system in human MelJuSo UbG76V-YFP cells assessed as accumulation of UbG76V-YFP protein at 5 to 10 uM after 18 hrs by immunoblot method. It is filed as cell-based.
For assay [4], the system named is MelJuSo UbG76V-YFP. In words: Inhibition of Ubiquitin-proteasome system in human MelJuSo UbG76V-YFP cells assessed as accumulation of K48-linked poly-ubiquitinated proteins at 5 to 10 uM after 18 hrs by immunoblot method. Type of assay: cell-based.
A further assay deals with CLL. Nature of the assay: (§1) Cytotoxicity against human CLL cells after 3 days by FMCA method. Type of assay: functional, cell-based.
The subject of another assay is Cancer cell lines. In words: (§2) Cytotoxicity against human Colon cancer cells after 3 days by FMCA method. It is filed as functional, cell-based.
For the next assay, the species on record is Homo sapiens. Nature of the assay: (§3) Cytotoxicity against human Pseudomyxoma peritonei cells after 3 days by FMCA method. Type of assay: functional, cell-based.
In assay [5] the target is T1, 26S proteasome (Homo sapiens) (UniProt Q99460+P49721+P20618+P28074+P28062+P28065+P28072+O00487+P25786+P25787+P25788+P25789+P28066+P60900+O14818+Q8TAA3+P40306+A5LHX3+P49720+P28070+Q99436+Q16186+P35998+P62191+P43686+P62333+P17980+P62195+Q13200+O43242+O00232+O00231+Q15008+P51665+Q9UNM6+P55036+P48556+P60896). As to conditions: MelJuSo UbG76V-YFP, 0.1 uM.
Description: Inhibition of 20S proteasome in human MelJuSo UbG76V-YFP cells assessed as accumulation of K48-linked poly-ubiquitinated proteins at 0.1 uM after 6 hrs by immunoblot method
In assay [6] the target is T1, 26S proteasome (Homo sapiens). As to conditions: MelJuSo UbG76V-YFP, 0.1 uM. This is another data set of the same source.
Description: Inhibition of 20S proteasome in human MelJuSo UbG76V-YFP cells assessed as accumulation of UbG76V-YFP protein at 0.1 uM after 6 hrs by immunoblot method
The nature of assay [7]: as §1. It is filed as functional, cell-based. The settings on record: 72 h.
A short description of assay [8]: as §2. Type of assay: functional, cell-based. The settings on record: Cancer cell lines, 72 h.
Assay [9] can be described thus: as §3. Type of assay: functional, cell-based. The settings on record: 72 h.
A short description of assay [10]: Cytotoxicity against human MelJuSo cells after 3 days by FMCA method. Type of assay: functional, cell-based. The settings on record: MEL-JUSO, 72 h.
A further assay concerns HCT-116. Nature of the assay: Cytotoxicity against human HCT116 cells after 3 days by FMCA method. The settings on record: HCT-116, 72 h. It is filed as functional, cell-based.
In another assay the test system is HL-60. In words: Cytotoxicity against human HL60 cells after 3 days by FMCA method. Type of assay: functional, cell-based. The settings on record: HL-60, 72 h.
A further assay has as its system Kasumi 1. Nature of the assay: Cytotoxicity against human Kasumi-1 cells after 3 days by FMCA method. Type of assay: functional, cell-based. The settings on record: Kasumi 1, 72 h.
Another assay concerns CCRF-CEM. Nature of the assay: Cytotoxicity against human CCRF-CEM cells after 3 days by FMCA method. It is filed as functional, cell-based. As to conditions: 72 h.
Assay [11] is described as follows: Cytotoxicity against human NCI-H929 cells after 3 days by FMCA method. Type of assay: functional, cell-based. As to conditions: NCI-H929, 72 h.
Assay [12] is described as follows: Cytotoxicity against human 8226/DOX40 cells after 3 days by FMCA method. The settings on record: 72 h. Type of assay: functional, cell-based.
Assay [13] is described as follows: Cytotoxicity against human RPMI18226 cells after 3 days by FMCA method. Type of assay: functional, cell-based. As to conditions: RPMI18226, 72 h.
Assay [14] has as its system MelJuSo UbG76V-YFP. Nature of the assay: Inhibition of Ubiquitin-proteasome system in human MelJuSo UbG76V-YFP cells assessed as HSP70B' accumulation 50 uM after 18 hrs by immunoblot method. It is filed as cell-based.
Assay [15] deals with MelJuSo UbG76V-YFP. Nature of the assay: Inhibition of Ubiquitin-proteasome system in human MelJuSo UbG76V-YFP cells assessed as HSP70B' accumulation 5 to 20 uM after 18 hrs by immunoblot method. It is filed as cell-based.
Assay [16] concerns MelJuSo UbG76V-YFP. In words: Inhibition of Ubiquitin-proteasome system in human MelJuSo UbG76V-YFP cells assessed as p21 accumulation 20 to 50 uM after 18 hrs by immunoblot method. Type of assay: cell-based.
In assay [17] the test system is MelJuSo UbG76V-YFP. Nature of the assay: Inhibition of Ubiquitin-proteasome system in human MelJuSo UbG76V-YFP cells assessed as accumulation of UbG76V-YFP protein at 50 uM after 18 hrs by immunoblot method. It is filed as cell-based.
The subject of assay [18] is MelJuSo UbG76V-YFP. Nature of the assay: Inhibition of Ubiquitin-proteasome system in human MelJuSo UbG76V-YFP cells assessed as accumulation of K48-linked poly-ubiquitinated proteins at 5 to 100 uM after 18 hrs by immunoblot method. It is filed as cell-based.
Assay [19] deals with T1, 26S proteasome (Homo sapiens). Nature of the assay: Inhibition of erythrocyte 20S proteasome (unknown origin) assessed as inhibition of chymotrypsin activity at 50 uM after 15 mins using Suc-LLVY-AMC substrate by fluorescence assay. Type of assay: protein-complex assay.
The target is the same in assay [20]. In words: Inhibition of erythrocyte 20S proteasome (unknown origin) assessed as inhibition of chymotrypsin activity at 10 uM after 15 mins using Suc-LLVY-AMC substrate by fluorescence assay. Type of assay: protein-complex assay.
The subject of assay [21] is MelJuSo UbG76V-YFP. In words: Inhibition of Ubiquitin-proteasome system in human MelJuSo UbG76V-YFP cells assessed as accumulation of K48-linked poly-ubiquitinated proteins at 10 uM after 18 hrs by immunoblot method. It is filed as cell-based.
The subject of assay [22] is MelJuSo UbG76V-YFP. In words: Inhibition of Ubiquitin-proteasome system in human MelJuSo UbG76V-YFP cells assessed as accumulation of UbG76V-YFP protein at 5 uM after 18 hrs by immunoblot method. Type of assay: cell-based.
Assay [23] has as its system MelJuSo UbG76V-YFP. Nature of the assay: Inhibition of Ubiquitin-proteasome system in human MelJuSo UbG76V-YFP cells assessed as accumulation of K48-linked poly-ubiquitinated proteins at 5 uM by immunoblot method. Type of assay: cell-based.
For assay [24], the system named is MelJuSo UbG76V-YFP. In words: Inhibition of Ubiquitin-proteasome system in human MelJuSo UbG76V-YFP cells assessed as accumulation of UbG76V-YFP protein at 5 uM. It is filed as cell-based.
In another assay the test system is HEK293. Nature of the assay: Inhibition of Ubiquitin-proteasome system in human HEK293 cells assessed as accumulation of ornithine decarboxylase-green fluorescent fusion protein at 5 uM after 16 hrs. Type of assay: cell-based.

Active and inactive are the calls of the source. The calls are words filed in the database; no cut-off is given here.

As to `O=C(CCl)Nc1cccc(NC2=NS(=O)(=O)c3ccccc32)c1`, the inhibition entry in the assay with MelJuSo UbG76V-YFP [1] and in the assay with MelJuSo UbG76V-YFP [4] was “Active” each time. Also, the inhibition entry in the assay on MelJuSo UbG76V-YFP [2] and in the assay on MelJuSo UbG76V-YFP [3] was “inactive” in each case.

`CC(C)C[C@H](NC(=O)[C@H](Cc1ccccc1)NC(=O)c1cnccn1)B(O)O`: the inhibition entry (with CLL; in the assay on Cancer cell lines; in the assay listed under Homo sapiens; in assay [5]; in [6]) was “Active” each time.

For `CC1(C)C(N(O)C(=O)Nc2ccc(Cl)cc2)N(c2ccc(Cl)cc2)C(=O)N1CC(=O)N/N=C/C=C/c1ccc([N+](=O)[O-])o1` (stereo unspecified), the inhibition entry with MelJuSo UbG76V-YFP [1] and in the assay on MelJuSo UbG76V-YFP [4] was “Active” in each case. The inhibition entry with MelJuSo UbG76V-YFP [2] and in the assay on MelJuSo UbG76V-YFP [3] was “inactive” in each case.

For `O=P(Oc1ccccc1)(Oc1ccccc1)OC1C=CS(=O)(=O)C1` (stereo unspecified), the IC50 in [7] was 0.69 µM; in [8] it was 1.7 µM; in assay [9], 0.51 µM; in assay [10] it was 5.4 µM; in the assay with HCT-116, 5.8 µM; in the assay with HL-60 it was 2.5 µM. Moreover, the IC50 in the assay with Kasumi 1 was determined as 1.9 µM; with CCRF-CEM, 1.8 µM; in assay [11] it was 0.61 µM; in assay [12], 2.8 µM; in assay [13], 1.3 µM. Further, the inhibition result in the assay with MelJuSo UbG76V-YFP [1], in the assay on MelJuSo UbG76V-YFP [4], in the assay with MelJuSo UbG76V-YFP [14], in the assay with MelJuSo UbG76V-YFP [16], in the assay with MelJuSo UbG76V-YFP [17] and with MelJuSo UbG76V-YFP [18] was “Active” in each case. Also, the inhibition result (in assay [19]; in the assay on MelJuSo UbG76V-YFP [21]; in the assay with MelJuSo UbG76V-YFP [23]; with MelJuSo UbG76V-YFP [24]; with HEK293) was “Active” throughout. Further, the inhibition result (with MelJuSo UbG76V-YFP [2]; with MelJuSo UbG76V-YFP [3]; in the assay with MelJuSo UbG76V-YFP [15]; in assay [20]; in the assay on MelJuSo UbG76V-YFP [22]) was “inactive” each time.

As to `COc1cc(/C=C/C(=O)N2CCC=CC2=O)cc(OC)c1OC`, the inhibition result with MelJuSo UbG76V-YFP [2] is “inactive”.
